In patent publication US8686184B2, “Neprilysin inhibitors” (Theravance, Inc., priority 2011, dated 2014):

Each compound was assayed against T1, human neprilysin (EC 3.4.24.11; NEP) (Homo sapiens, UniProt P08473) (assay: In vitro enzyme inhibition assay at human NEP (fluorogenic peptide substrate)). Settings: recombinant human NEP; 37° C.; substrate Mca-D-Arg-Arg-Leu-Dap-(Dnp)-OH 10 μM; values given as ranges; read-out: pKi values at human NEP (converted).
T1 construct: purchased R&D Systems, Minneapolis, Minn; 1182-ZN
T1 sequence (P08473 52-750 limits assumed): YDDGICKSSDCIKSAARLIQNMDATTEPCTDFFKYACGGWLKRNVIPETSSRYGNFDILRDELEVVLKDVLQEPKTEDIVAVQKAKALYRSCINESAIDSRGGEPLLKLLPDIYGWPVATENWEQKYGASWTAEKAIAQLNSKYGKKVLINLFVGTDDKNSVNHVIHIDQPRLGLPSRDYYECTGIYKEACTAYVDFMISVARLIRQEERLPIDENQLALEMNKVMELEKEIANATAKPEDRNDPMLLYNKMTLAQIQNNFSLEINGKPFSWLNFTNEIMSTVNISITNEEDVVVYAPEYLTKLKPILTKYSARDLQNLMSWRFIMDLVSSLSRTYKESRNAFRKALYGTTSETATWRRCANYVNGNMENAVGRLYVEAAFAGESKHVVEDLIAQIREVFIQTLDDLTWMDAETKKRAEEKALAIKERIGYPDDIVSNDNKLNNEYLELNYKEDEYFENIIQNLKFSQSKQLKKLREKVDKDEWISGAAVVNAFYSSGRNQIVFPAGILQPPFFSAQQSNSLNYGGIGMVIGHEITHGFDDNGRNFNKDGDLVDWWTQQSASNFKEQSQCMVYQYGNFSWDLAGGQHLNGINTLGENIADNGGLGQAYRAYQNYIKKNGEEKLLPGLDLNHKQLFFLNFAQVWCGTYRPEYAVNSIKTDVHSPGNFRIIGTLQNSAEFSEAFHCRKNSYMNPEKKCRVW
Assay type: biochemical
Experimental: In vitro Assays for the Quantitation of Inhibitor Potencies at Human and Rat NEP, and Human ACE
The inhibitory activities of compounds at human and rat neprilysin (EC 3.4.24.11; NEP) and human angiotensin converting enzyme (ACE) were determined using in vitro assays as described below.
Recombinant human NEP and recombinant human ACE were obtained commercially (R&D Systems, Minneapolis, Minn., catalog numbers 1182-ZN and 929-ZN, respectively). The fluorogenic peptide substrate Mca-D-Arg-Arg-Leu-Dap-(Dnp)-OH (Medeiros et al. (1997) Braz. J. Med. Biol. Res. 30:1157-62; Anaspec, San Jose, Calif.) and Abz-Phe-Arg-Lys(Dnp)-Pro-OH (Araujo et al. (2000) Biochemistry 39:8519-8525; Bachem, Torrance, Calif.) were used in the NEP and ACE assays respectively.
The assays were performed in 384-well white opaque plates at 37° C. using the fluorogenic peptide substrates at a concentration of 10 μM in Assay Buffer (NEP: 50 mM HEPES, pH 7.5, 100 mM NaCl, 0.01% polyethylene glycol sorbitan monolaurate (Tween-20), 10 μM ZnSO4; ACE: 50 mM HEPES, pH 7.5, 100 mM NaCl, 0.01% Tween-20, 1 μM ZnSO4).
Test compounds were assayed over the range of concentrations from 10 μM to 20 pM. Test compounds were added to the enzymes and incubated for 30 minute at 37° C. prior to initiating the reaction by the addition of substrate. Reactions were terminated after 20 minutes of incubation at 37° C. by the addition of glacial acetic acid to a final concentration of 3.6% (v/v).
Plates were read on a fluorometer with excitation and emission wavelengths set to 320 nm and 405 nm, respectively Inhibition constants were obtained by nonlinear regression of the data using the equation (GraphPad Software, Inc., San Diego, Calif.): v=v0/[1+(I/K′)] where v is the reaction rate, v0 is the uninhibited reaction rate, I is the inhibitor concentration and K′ is the apparent inhibition constant.
Compounds of the invention were tested in this assay and found to have pKi values at human NEP as follows.

`O=C(O)c1cccc(-c2ccc(C(=O)N[C@H](Cc3ccccc3)[C@@H](O)C(=O)O)cc2)c1` [Example 10-51, 4′-((1R,2R)-1-Benzyl-2-carboxy-2-hydroxy-ethylcarbamoyl)-biphenyl-3-carboxylic acid] and `Cc1ccc(C(=O)N[C@H](Cc2ccccc2)[C@@H](O)C(=O)O)cc1-c1cccc(C(=O)O)c1` [Example 10-62, 5′-((1R,2R)-1-Benzyl-2-carboxy-2-hydroxy-ethylcarbamoyl)-2′-methyl-biphenyl-3-carboxylic acid] fall in the same range of Ki: 12.6 to 100 nM for the first, 12.6 to 100 nM for the second.

`O=C(Nc1ccc(C(=O)N[C@H](Cc2ccccc2)[C@@H](O)C(=O)O)cc1)Nc1sccc1C(=O)O` [Example 10-52] and `Cc1cc(C(=O)O)c(NC(=O)Nc2ccc(C(=O)N[C@H](Cc3ccccc3)[C@@H](O)C(=O)O)cc2)s1` [Example 10-53] fall in the same range of Ki: 12.6 to 100 nM for the first, 12.6 to 100 nM for the second.

`Cc1ccc(C(=O)N[C@H](Cc2ccccc2)[C@@H](O)C(=O)O)cc1Br` [Example 10-54, (2R,3R)-3-(3-Bromo-4-methyl-benzoylamino)-2-hydroxy-4-phenyl-butyric acid] and `CC(C)c1ccc(C(=O)N[C@H](Cc2ccccc2)[C@@H](O)C(=O)O)cc1Br` [Example 10-55, (2R,3R)-3-(3-Bromo-4-isopropyl-benzoylamino)-2-hydroxy-4-phenyl-butyric acid] fall in the same range of Ki: 12.6 to 100 nM for the first, 12.6 to 100 nM for the second.

`CCCNc1ccc(C(=O)N[C@H](Cc2ccccc2)[C@@H](O)C(=O)O)cc1Cl` [Example 10-56, (2R,3R)-3-(3-Chloro-4-propylamino-benzoylamino)-2-hydroxy-4-phenyl-butyric acid] and `CCNC(=O)Nc1cc(C(=O)N[C@H](Cc2ccccc2)[C@@H](O)C(=O)O)ccc1CC` [Example 10-72, (2R,3R)-3-[4-Ethyl-3-(3-ethyl-ureido)-benzoylamino]-2-hydroxy-4-phenyl-butyric acid] fall in the same range of Ki: 12.6 to 100 nM for the first, 12.6 to 100 nM for the second.

`Cc1cc(C(=O)N[C@H](Cc2ccccc2)[C@@H](O)C(=O)O)ccc1-n1c(C)cc(C=O)c1C` [Example 10-57, (2R,3R)-3-[4-(3-Formyl-2,5-dimethyl-pyrrol-1-yl)-3-methyl-benzoylamino]-2-hydroxy-4-phenyl-butyric acid] and `Cc1cc(C(=O)N[C@H](Cc2ccccc2)[C@@H](O)C(=O)O)ccc1-n1cccc1` [Example 10-58, (2R,3R)-2-Hydroxy-3-(3-methyl-4-pyrrol-1-yl-benzoylamino)-4-phenyl-butyric acid] fall in the same range of Ki: 12.6 to 100 nM for the first, 12.6 to 100 nM for the second.

`O=C(O)CCc1cccc(C(=O)N[C@H](Cc2ccccc2)[C@@H](O)C(=O)O)c1` [Example 10-59, (2R,3R)-3-[3-(2-Carboxy-ethyl)-benzoylamino]-2-hydroxy-4-phenyl-butyric acid] and `CCCC1=NN(c2cccc(C(=O)N[C@H](Cc3ccccc3)[C@@H](O)C(=O)O)c2)C(=O)C1` [Example 10-60, (2R,3R)-2-Hydroxy-3-[3-(5-oxo-3-propyl-4,5-dihydro-pyrazol-1-yl)-benzoylamino]-4-phenyl-butyric acid] fall in the same range of Ki: 12.6 to 100 nM for the first, 12.6 to 100 nM for the second.

`Cc1ccc(C(=O)N[C@H](Cc2ccccc2)[C@@H](O)C(=O)O)cc1-c1ccc(C(=O)O)cc1` [Example 10-61, 5′-((1R,2R)-1-Benzyl-2-carboxy-2-hydroxy-ethylcarbamoyl)-2′-methyl-biphenyl-4-carboxylic acid] and `O=C(N[C@H](Cc1ccccc1)[C@@H](O)C(=O)O)c1cccc(-c2cccnc2C(=O)O)c1` [Example 10-64, 3-[3-((1R,2R)-1-Benzyl-2-carboxy-2-hydroxy-ethylcarbamoyl)-phenyl]-pyridine-2-carboxylic acid] fall in the same range of Ki: 12.6 to 100 nM for the first, 12.6 to 100 nM for the second.

First: O=C(N[C@H](Cc1ccccc1)[C@@H](O)C(=O)O)c1cccc(-c2ncccc2C(=O)O)c1 [Example 10-63, 2-[3-((1R,2R)-1-Benzyl-2-carboxy-2-hydroxy-ethylcarbamoyl)-phenyl]-nicotinic acid]
Second: CCc1ccc(C(=O)N[C@H](Cc2ccccc2)[C@@H](O)C(=O)O)cc1NC(=O)c1ccccn1 [Example 10-70, (2R,3R)-3-{4-Ethyl-3-[(pyridine-2-carbonyl)-amino]-benzoylamino}-2-hydroxy-4-phenyl-butyric acid]
The Ki of the first is lower: 1.26 to 10 nM for the first, 12.6 to 100 nM for the second.

`CCc1ccc(C(=O)N[C@H](Cc2ccccc2)[C@@H](O)C(=O)O)cc1-n1c(=O)[nH]c2sc(C)cc2c1=O` [Example 10-65, (2R,3R)-3-[4-Ethyl-3-(6-methyl-2,4-dioxo-1,4-dihydro-2H-thieno[2,3-d]pyrimidin-3-yl)-benzoylamino]-2-hydroxy-4-phenyl-butyric acid] and `CCc1ccc(C(=O)N[C@H](Cc2ccccc2)[C@@H](O)C(=O)O)cc1NC(=O)Nc1sc(C)cc1C(=O)O` [Example 10-77, 2-{3-[5-((1R,2R)-1-Benzyl-2-carboxy-2-hydroxy-ethylcarbamoyl)-2-ethyl-phenyl]-ureido}-5-methyl-thiophene-3-carboxylic acid] cannot be ordered by Ki: no more than 1 nM for the first, no more than 1 nM for the second.

`CCCCC(=O)Nc1cc(C(=O)N[C@H](Cc2ccccc2)[C@@H](O)C(=O)O)ccc1CC` [Example 10-66, (2R,3R)-3-(4-Ethyl-3-pentanoylamino-benzoylamino)-2-hydroxy-4-phenyl-butyric acid] and `CCCCNC(=O)Nc1cc(C(=O)N[C@H](Cc2ccccc2)[C@@H](O)C(=O)O)ccc1CC` [Example 10-73, (2R,3R)-3-[3-(3-Butyl-ureido)-4-ethyl-benzoylamino]-2-hydroxy-4-phenyl-butyric acid] fall in the same range of Ki: 12.6 to 100 nM for the first, 12.6 to 100 nM for the second.

`CCc1ccc(C(=O)N[C@H](Cc2ccccc2)[C@@H](O)C(=O)O)cc1NC(=O)CC(=O)O` [Example 10-67, (2R,3R)-3-[3-(2-Carboxy-acetylamino)-4-ethyl-benzoylamino]-2-hydroxy-4-phenyl-butyric acid] and `CCc1ccc(C(=O)N[C@H](Cc2ccccc2)[C@@H](O)C(=O)O)cc1NC(=O)NC(CC(C)C)C(=O)O` (stereo partly drawn) [Example 10-74, 2-{3-[5-((1R,2R)-1-Benzyl-2-carboxy-2-hydroxy-ethylcarbamoyl)-2-ethyl-phenyl]-ureido}-4-methyl-pentanoic acid] fall in the same range of Ki: 12.6 to 100 nM for the first, 12.6 to 100 nM for the second.

`CCc1ccc(C(=O)N[C@H](Cc2ccccc2)[C@@H](O)C(=O)O)cc1NC(=O)c1ccccc1` [Example 10-68, (2R,3R)-3-(3-Benzoylamino-4-ethyl-benzoylamino)-2-hydroxy-4-phenyl-butyric acid] and `CCc1ccc(C(=O)N[C@H](Cc2ccccc2)[C@@H](O)C(=O)O)cc1NC(=O)Nc1ccccc1` [Example 10-75, (2R,3R)-3-[4-Ethyl-3-(3-phenyl-ureido)-benzoylamino]-2-hydroxy-4-phenyl-butyric acid] fall in the same range of Ki: 12.6 to 100 nM for the first, 12.6 to 100 nM for the second.

`CCc1ccc(C(=O)N[C@H](Cc2ccccc2)[C@@H](O)C(=O)O)cc1NC(=O)c1cccnc1` [Example 10-69, (2R,3R)-3-{4-Ethyl-3-[(pyridine-3-carbonyl)-amino]-benzoylamino}-2-hydroxy-4-phenyl-butyric acid] and `CCc1ccc(C(=O)N[C@H](Cc2ccccc2)[C@@H](O)C(=O)O)cc1NC(=O)c1ccncc1` [Example 10-71, (2R,3R)-3-{4-Ethyl-3-[(pyridine-4-carbonyl)-amino]-benzoylamino}-2-hydroxy-4-phenyl-butyric acid] fall in the same range of Ki: 12.6 to 100 nM for the first, 12.6 to 100 nM for the second.

`CCc1ccc(C(=O)N[C@H](Cc2ccccc2)[C@@H](O)C(=O)O)cc1NC(=O)Nc1sccc1C(=O)O` [Example 10-76, 2-{3-[5-((1R,2R)-1-Benzyl-2-carboxy-2-hydroxy-ethylcarbamoyl)-2-ethyl-phenyl]-ureido}-thiophene-3-carb oxylic acid] gave a Ki of 12.6 to 100 nM.
